The target of one assay is T1, human αvβ3 integrin (Homo sapiens, UniProt P05106+P06756).
T1 construct: was purified from human placenta; from tissue; host or cells: human placenta
The assay can be described thus: αvβ3-vitronectin binding assay (solid phase). The settings on record: for IC50: inhibition of biotinylated vitronectin (5 nM) binding to coated αvβ3, read-out: αvβ3 (IC50 μmol); for ratio between αIIbβ3 and αvβ3 inhibiting activity: selectivity, αIIbβ3 IC50 over αvβ3 IC50. As for the experimental part:
A solid phase assay for the study of αvβ3-vitronectin binding was set up on the basis of already published methods (Wong et al., Molecular Pharmacology 50: 529-537, 1996; Brooks et al., Cell 85: 683-693, 1996). The human αvβ3 integrin was diluted into coating buffer (CB) containing 150 mM NaCl, 1 mM CaCl2, 1 mM MgCl2, 1 mM MnCl2, 20 mM TRIS, pH 7.4 at a concentration of 1.5 μg/ml. Into 96-well plates, 50 μl of the diluted integrin were added and allowed to bind to the plate walls overnight at 4° C. Next day, the assay plates were emptied and 100 μl of blocking buffer (CB buffer with 3% BSA) were added to each well for 45 min at 37° C. After the incubation, the plates were washed three times with 100 μl assay buffer (AB, CB buffer with 0.1% BSA). Serial 1:1 dilution (25 μl/well) of the test compounds were added to the plates, starting from 10 mM solutions in 100% DMSO diluted to 100 µM in AB. The binding reaction was started by addition (25 μl/well) of 10 nM biotinylated vitronectin (final concentration: 5 nM), and lasted 30 min at 37° C. The concentration range of the tested compounds spanned from 50 to 0.0005 μM. At the end of the co-incubation, the assay plates were washed as before and 70 μl of a 1:1000 AB dilution of peroxydase-conjugated streptavidin were added per well and were allowed to react for 45 min at 37° C. Then, the plates were washed as described and 50 μl of ready to use Turbo-TMB substrate for peroxydase were added to each well. After 30 minutes incubation at room temperature, the colour development was stopped with 50 μl sulphuric acid 0.38 M and the plates were read at a wavelength of 450 nm with a Packard plate reader. The values obtained were analyzed by four parameters curve fit in the computer program GraphPad Prism, after normalization by a maximum binding control (Bmax) detected in wells where no competitor was added, and a minimum binding control (NSB) detected in wells where no integrin was coated. Under standard assay conditions, A450 was never under 1.0 for Bmax, and around 0.15 for NSB.
Human vitronectin receptor ([…]v[…]3) was purified from human placenta (Pytela et al., Methods in Enzymology, 144: 475-489, 1987). Turbo-TMB was from PIERCE (34022). BSA (A4503), Vitronectin (V8379), RGD peptide (G4144) and all generic reagents were from SIGMA. Vitronectin was biotinylated according to the procedure indicated in the NHS biotinylation kit from PIERCE (21420). Horseradish peroxydase-streptavidin was from Amersham (RPN1231). 96-well plates were from Costar (#3690, EIA/RIA plate, ½ area flat bottom, high binding).

Assay [1] deals with T2, αIIbβ3 integrin (human fibrinogen receptor) (Homo sapiens, UniProt P05106+P08514).
T2 construct: was purified from human platelets; from tissue; host or cells: human platelets
T2 sequence (P08514 32-887 limits assumed): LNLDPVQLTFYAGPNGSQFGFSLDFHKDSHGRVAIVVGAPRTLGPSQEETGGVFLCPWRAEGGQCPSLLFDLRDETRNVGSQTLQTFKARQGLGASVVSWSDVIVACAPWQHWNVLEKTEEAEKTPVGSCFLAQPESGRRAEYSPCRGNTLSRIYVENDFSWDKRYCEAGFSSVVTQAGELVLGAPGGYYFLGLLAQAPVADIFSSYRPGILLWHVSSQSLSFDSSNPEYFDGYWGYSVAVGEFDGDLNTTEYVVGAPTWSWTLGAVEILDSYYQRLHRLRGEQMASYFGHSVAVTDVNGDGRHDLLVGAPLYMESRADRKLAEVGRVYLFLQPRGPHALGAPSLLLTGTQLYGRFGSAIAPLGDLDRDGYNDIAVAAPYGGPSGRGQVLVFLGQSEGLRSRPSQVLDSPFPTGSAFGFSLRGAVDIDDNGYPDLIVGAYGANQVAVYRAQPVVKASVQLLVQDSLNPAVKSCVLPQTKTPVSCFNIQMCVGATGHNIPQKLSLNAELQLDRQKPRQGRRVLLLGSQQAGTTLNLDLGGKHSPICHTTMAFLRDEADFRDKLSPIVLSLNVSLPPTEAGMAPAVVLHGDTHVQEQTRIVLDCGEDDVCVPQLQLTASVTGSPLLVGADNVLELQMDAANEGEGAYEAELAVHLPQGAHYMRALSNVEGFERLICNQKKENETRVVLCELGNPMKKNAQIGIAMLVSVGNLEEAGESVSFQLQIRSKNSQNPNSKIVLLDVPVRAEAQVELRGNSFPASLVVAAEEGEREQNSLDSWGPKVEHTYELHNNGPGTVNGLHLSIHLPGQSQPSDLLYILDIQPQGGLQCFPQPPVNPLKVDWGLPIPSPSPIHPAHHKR
T2 sequence (P08514 891-1039 partner limits assumed): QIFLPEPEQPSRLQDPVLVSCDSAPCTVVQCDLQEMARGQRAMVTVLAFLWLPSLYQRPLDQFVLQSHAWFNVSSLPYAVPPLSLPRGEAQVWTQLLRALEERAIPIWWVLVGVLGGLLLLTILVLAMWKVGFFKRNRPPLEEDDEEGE
T2 sequence (P05106 27-788): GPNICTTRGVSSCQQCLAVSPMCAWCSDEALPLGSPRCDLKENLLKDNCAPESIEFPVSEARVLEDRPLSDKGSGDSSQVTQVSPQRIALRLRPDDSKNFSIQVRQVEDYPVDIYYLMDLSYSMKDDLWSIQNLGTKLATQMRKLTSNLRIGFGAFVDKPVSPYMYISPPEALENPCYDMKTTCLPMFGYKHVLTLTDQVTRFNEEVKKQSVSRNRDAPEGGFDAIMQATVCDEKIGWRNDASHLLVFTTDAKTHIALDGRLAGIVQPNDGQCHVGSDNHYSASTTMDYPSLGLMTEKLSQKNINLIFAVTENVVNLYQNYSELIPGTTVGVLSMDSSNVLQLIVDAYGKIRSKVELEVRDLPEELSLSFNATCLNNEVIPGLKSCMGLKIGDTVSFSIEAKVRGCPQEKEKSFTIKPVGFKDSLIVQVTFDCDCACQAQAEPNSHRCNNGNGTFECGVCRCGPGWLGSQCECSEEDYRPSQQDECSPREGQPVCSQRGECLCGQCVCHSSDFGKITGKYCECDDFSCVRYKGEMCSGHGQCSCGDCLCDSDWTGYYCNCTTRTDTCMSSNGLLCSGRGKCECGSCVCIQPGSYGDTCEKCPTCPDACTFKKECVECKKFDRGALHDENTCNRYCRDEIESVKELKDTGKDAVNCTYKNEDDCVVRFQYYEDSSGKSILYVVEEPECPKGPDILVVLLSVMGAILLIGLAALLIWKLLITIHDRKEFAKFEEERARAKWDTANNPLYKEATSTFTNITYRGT
The assay can be described thus: αIIbβ3-fibrinogen binding assay (solid phase). The note with it: inhibition of biotinylated fibrinogen (10 nM) binding to coated αIIbβ3; read-out: αIIbβ3 (IC50 μmol). As for the experimental part:
A solid phase assay for the study of αIIbβ3-fibrinogen binding was set up on according to the method described for αvβ3. αIIbβ3 integrin was diluted into coating buffer (CB) containing 150 mM NaCl, 1 mM CaCl2, 1 mM MgCl2, 1 mM MnCl2, 20 mM TRIS, pH 7.4 at a concentration of 3 μg/ml. Into 96-well plates, 50 μl of the diluted integrin were added and allowed to bind to the plate walls overnight at 4° C. Next day, the assay plates were emptied and 100 μl of blocking buffer (CB buffer with 3% BSA) were added to each well for 45 min at 37° C. […] Then, the plates were washed as described and 50 μl of ready to use Turbo-TMB substrate for peroxydase were added to each well. After 30 minutes incubation at room temperature, the colour development was stopped with 50 μl sulphuric acid 0.38 M and the plates were read at a wavelength of 450 nm with a Packard plate reader. The values obtained were analysed by four parameters curve fit with the computer program GraphPad Prism, after normalization by a maximum binding control (Bmax) detected in wells where no competitor was added, and a minimum binding control (NSB) detected in wells where no integrin was coated. […]

The term IC50 denotes the concentration that inhibits the measured activity by half.

Molecules are shown by their SMILES.

T1 sequence (P06756 31-889 limits assumed): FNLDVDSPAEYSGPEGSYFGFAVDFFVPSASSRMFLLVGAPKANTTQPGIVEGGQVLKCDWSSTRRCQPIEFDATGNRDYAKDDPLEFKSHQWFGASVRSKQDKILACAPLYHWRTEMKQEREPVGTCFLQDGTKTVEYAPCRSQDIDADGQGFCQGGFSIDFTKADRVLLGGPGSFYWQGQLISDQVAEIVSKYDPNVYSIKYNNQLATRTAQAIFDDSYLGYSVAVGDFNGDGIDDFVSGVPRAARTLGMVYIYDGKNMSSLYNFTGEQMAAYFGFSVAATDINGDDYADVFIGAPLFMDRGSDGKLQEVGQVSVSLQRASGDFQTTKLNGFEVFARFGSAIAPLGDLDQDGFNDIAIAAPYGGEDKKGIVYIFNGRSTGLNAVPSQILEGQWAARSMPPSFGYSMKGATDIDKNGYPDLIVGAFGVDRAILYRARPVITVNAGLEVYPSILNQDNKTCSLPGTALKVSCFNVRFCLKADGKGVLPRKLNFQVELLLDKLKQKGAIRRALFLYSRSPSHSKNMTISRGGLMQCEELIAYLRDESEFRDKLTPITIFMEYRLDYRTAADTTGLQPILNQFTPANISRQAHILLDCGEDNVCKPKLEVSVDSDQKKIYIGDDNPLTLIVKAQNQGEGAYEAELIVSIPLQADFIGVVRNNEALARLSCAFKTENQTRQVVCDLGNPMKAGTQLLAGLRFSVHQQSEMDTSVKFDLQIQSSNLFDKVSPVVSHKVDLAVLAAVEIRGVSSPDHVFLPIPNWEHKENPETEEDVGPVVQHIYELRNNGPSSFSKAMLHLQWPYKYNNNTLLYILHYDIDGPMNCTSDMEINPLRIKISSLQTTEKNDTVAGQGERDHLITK
T1 sequence (P06756 891-1048 partner limits assumed): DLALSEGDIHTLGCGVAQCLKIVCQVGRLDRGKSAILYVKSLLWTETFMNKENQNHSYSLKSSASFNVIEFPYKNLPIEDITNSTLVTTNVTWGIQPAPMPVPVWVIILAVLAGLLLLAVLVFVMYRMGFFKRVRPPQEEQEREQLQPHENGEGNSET
T1 sequence (P05106 27-788): as the sequence (P05106 27-788) above

In the case of `O=C(O)CC1CN(c2ccccc2)c2cc(NC(=O)CCCNc3ccccn3)ccc2O1` (stereo not drawn) [Compound 1b, (4-phenyl-6-{[4-(2-pyridinylamino)butanoyl]amino}-3,4-dihydro-2H-1,4-benzoxazin-2-yl)acetic acid], the IC50 on human αvβ3 integrin is 0.024 ± 0.009 µM; in assay [1], 27 µM. Moreover, on human αvβ3 integrin, the “ratio between αIIbβ3 and αvβ3 inhibiting activity” value was “about 1,000”.
For `O=C(O)CC1CN(c2ccccc2)c2cc(NC(=O)CCNc3ccccn3)ccc2O1` (stereo not drawn) [Compound 1a, (4-phenyl-6-{[3-(2-pyridinylamino)propanoyl]amino}-3,4-dihydro-2H-1,4-benzoxazin-2-yl)acetic acid] the same measures were 0.044 ± 0.025 µM, 30 µM and “about 1,000”.

These data come from patent publication US6794385B2, “Benzoxazine derivatives useful as integrin receptor antagonists” (Pharmacia & Upjohn, S.p.A., priority 2001, dated 2004).
